In US20230212142A9, “Substituted 5-Cyclopropyl-1H-pyrazole-3-yl-amine Derivatives as Selective CDK12/13 Inhibitors” (Aurigene Discovery Technologies Limited, priority 2019, published 2023):
pIC50, pKd: −log10 of the molar value.

Key:
CDK13 = CDK13 (Homo sapiens, UniProt Q14004); experiment: Biochemical assay for CDK13 (LanthaScreen Eu Kinase Binding Assay); conditions: kinase tracer 236 100 nM, CDK13 5 nM
Experimental: LanthaScreen Eu Kinase Binding Assays are based on the binding and displacement of Alexa Fluor 647-labeled, ATP-competitive kinase inhibitor scaffold (kinase tracer) to the kinase of interest. Binding of the kinase tracer 236 (100 nM) to the CDK13 (5 nM) kinase is detected using a europium-labelled anti- GST tag antibody (2 nM), which binds to the kinase. Simultaneous binding of the tracer and antibody to the kinase results in a high degree of FRET (fluorescence resonance energy transfer) from the europium (Eu) donor fluorophore to the Alexa Fluor™ 647 acceptor fluorophore on the kinase tracer. Binding of an inhibitor to the kinase competes for binding with the tracer, resulting in a loss of FRET signal.

CDK12 = CDK12 (Homo sapiens, UniProt Q9NYV4); experiment: Biochemical assay for CDK12 (kinase-tagged phage / qPCR competition binding); design: host or cells: E. coli BL21-derived host (T7 phage display) or HEK-293
Experimental: Kinase-tagged T7 phage strains were grown in parallel in 24-well blocks in an E. coli host derived from the BL21 strain. E. coli were grown to log-phase and infected with T7 phage from a frozen stock (multiplicity of infection=0.4) and incubated with shaking at 32° C. until lysis (90-150 minutes). The lysates were centrifuged (6,000×g) and filtered (0.2 μm) to remove cell debris. The remaining kinases were produced in HEK-293 cells and subsequently tagged with DNA for qPCR detection. Streptavidin-coated magnetic beads were treated with biotinylated small molecule ligands for 30 minutes at room temperature to generate affinity resins for kinase assays. The liganded beads were blocked with excess biotin and washed with blocking buffer (SeaBlock (Pierce), 1% BSA, 0.05% Tween 20, 1 mM
DTT) to remove unbound ligand and to reduce non-specific phage binding. Binding reactions were assembled by combining kinases, liganded affinity beads, and test compounds in lx binding buffer (20% SeaBlock, 0.17×PBS, 0.05% Tween 20, 6 mM DTT). Test compounds were prepared as 40× stocks in 100% DMSO and directly diluted into the assay. All reactions were performed in polypropylene 384-well plates in a final volume of 0.02 ml. The assay plates were incubated at room temperature with shaking for 1 hour and the affinity beads were washed with wash buffer (1 PBS, 0.05% Tween 20). The beads were then re-suspended in elution buffer (1× PBS, 0.05% Tween 20, 0.5 μM non-biotinylated affinity ligand) and incubated at room temperature with shaking for 30 minutes. The kinase concentration in the eluates was measured by qPCR.

CDK7 = CDK7 (Homo sapiens, UniProt P50613); experiment: Biochemical assay for CDK7 (LANCE TR-FRET, ULight-MBP phosphorylation); conditions: CDK7 10 nM, ATP 1 mM/100 μM, 60 min pre-incubation
Experimental: The inhibitory activity of the test compounds was assessed by the LANCE TR-FRET assay, which detects the ATP-dependent phosphorylation of an ULight-myelin basic protein (MBP) substrate peptide (100 nM) by CDK7 (10 nM). Briefly, the enzyme reaction was run in reaction buffer (20 mM HEPES (pH 7.5), 10 mM MgCl2, 0.01% Triton x, 100 μM Sodium Orthovanadate, 1 mM DTT). The assay was performed in 384-well plate. The end concentration of the ATP substrate was 1 mM/100 μM, and that of the ULight-MBP substrate peptide was 100 nM, and of CDK7 was 10 nM. Pre-incubation of the compound and enzyme was performed for 60 min at room temperature. After 60 min incubation at room temperature, the reaction was terminated by the addition of 40 mM EDTA and 1 nM Eu-labeled anti-phospho-MBP-binding protein antibody in the buffer. Time-resolved fluorescence (excitation, 320 nm; emission donor, 615 nm; emission acceptor, 665 nm) was monitored by using 2030 multilabel reader Victor5 (PerkinElmer). The readout was calculated as (acceptor counts/donor counts)×1000. The IC50 values were derived by fitting a sigmoidal dose-response curve to a plot of assay readout over inhibitor concentration. All fits were computed with the program Prism 5.03 (Graph Pad Software, San Diego, Calif.).

CDK13, sequence (Q14004 whole entry, species assumed): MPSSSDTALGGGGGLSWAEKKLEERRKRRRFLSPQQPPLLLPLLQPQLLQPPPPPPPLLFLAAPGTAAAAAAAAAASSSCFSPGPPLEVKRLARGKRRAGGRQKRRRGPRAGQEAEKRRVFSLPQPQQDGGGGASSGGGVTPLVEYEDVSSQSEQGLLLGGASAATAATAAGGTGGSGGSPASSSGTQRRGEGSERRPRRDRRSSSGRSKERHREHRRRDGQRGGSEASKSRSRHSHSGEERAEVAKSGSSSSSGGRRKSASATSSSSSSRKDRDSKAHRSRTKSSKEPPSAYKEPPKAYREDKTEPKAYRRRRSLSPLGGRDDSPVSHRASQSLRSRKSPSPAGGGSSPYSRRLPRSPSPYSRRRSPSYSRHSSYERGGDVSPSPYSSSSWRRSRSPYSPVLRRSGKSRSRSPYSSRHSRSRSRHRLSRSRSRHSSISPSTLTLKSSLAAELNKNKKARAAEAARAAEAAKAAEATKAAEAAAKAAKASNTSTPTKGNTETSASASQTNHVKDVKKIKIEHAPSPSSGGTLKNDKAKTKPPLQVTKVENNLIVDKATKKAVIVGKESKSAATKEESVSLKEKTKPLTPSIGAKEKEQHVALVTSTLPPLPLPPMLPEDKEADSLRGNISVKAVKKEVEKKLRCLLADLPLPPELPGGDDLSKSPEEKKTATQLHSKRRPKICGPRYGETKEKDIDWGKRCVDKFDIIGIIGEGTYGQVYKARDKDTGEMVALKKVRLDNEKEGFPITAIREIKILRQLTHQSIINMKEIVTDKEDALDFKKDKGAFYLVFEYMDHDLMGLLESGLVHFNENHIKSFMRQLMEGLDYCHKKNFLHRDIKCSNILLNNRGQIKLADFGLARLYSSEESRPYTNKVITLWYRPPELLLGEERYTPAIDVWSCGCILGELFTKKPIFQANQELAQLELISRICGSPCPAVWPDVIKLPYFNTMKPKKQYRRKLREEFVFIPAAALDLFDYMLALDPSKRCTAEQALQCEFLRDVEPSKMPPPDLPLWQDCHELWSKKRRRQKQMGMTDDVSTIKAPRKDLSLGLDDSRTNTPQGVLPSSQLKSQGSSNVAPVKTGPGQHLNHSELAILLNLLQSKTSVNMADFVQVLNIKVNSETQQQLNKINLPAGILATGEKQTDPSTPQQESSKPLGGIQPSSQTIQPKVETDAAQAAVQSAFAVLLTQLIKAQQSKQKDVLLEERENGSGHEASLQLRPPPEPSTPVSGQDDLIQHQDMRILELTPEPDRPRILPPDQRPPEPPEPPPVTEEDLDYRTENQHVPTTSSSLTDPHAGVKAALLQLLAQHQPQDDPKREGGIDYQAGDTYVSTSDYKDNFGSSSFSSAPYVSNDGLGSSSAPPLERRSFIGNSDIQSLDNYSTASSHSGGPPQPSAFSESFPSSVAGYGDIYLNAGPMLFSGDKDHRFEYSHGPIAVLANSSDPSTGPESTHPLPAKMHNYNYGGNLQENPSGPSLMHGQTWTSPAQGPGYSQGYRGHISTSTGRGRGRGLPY
CDK13, sequence (O75909 whole entry partner, species assumed): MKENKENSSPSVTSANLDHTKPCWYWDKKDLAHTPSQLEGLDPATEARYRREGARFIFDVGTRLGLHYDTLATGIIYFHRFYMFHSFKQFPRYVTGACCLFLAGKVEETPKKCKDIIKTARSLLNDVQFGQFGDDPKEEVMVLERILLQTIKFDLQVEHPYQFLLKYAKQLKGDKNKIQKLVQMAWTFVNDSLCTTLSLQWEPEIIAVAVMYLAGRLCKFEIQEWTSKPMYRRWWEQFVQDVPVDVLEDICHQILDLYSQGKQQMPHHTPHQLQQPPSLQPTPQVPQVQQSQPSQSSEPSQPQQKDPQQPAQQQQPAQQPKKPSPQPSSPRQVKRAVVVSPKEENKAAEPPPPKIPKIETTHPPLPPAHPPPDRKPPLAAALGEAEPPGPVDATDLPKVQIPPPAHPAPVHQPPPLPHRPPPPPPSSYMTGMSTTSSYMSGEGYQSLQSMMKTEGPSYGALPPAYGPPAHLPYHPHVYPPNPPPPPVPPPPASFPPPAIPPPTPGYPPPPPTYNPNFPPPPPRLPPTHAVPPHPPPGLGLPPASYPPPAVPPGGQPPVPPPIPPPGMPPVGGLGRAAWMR
CDK7, sequence (P50613 whole entry, species assumed): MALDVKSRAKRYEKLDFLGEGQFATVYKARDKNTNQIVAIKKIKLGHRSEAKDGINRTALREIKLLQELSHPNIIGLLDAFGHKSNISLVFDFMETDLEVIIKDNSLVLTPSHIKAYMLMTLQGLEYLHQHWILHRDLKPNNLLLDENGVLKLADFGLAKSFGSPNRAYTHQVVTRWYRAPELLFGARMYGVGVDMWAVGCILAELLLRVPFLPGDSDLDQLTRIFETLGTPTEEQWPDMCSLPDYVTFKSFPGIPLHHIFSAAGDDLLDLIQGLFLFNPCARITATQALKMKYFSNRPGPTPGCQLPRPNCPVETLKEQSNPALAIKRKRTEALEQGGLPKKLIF
CDK7, sequence (P51946 whole entry partner, species assumed): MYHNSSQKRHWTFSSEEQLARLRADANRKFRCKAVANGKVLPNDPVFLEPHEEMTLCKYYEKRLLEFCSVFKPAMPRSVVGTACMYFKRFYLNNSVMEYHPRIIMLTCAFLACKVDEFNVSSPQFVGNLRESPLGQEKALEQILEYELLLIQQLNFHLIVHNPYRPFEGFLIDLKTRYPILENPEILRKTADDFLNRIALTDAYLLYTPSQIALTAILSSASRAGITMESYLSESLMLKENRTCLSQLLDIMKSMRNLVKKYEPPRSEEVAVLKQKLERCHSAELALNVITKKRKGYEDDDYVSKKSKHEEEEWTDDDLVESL
CDK7, sequence (P51948 whole entry partner, species assumed): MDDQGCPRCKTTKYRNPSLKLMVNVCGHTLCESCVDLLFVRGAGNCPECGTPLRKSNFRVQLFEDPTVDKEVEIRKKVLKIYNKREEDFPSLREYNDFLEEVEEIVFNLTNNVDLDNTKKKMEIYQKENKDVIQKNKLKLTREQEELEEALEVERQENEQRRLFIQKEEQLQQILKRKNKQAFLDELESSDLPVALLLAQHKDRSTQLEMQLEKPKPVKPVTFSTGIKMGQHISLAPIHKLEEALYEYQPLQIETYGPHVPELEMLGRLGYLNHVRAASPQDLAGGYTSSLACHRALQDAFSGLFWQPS
CDK12, sequence (Q9NYV4 whole entry, species assumed): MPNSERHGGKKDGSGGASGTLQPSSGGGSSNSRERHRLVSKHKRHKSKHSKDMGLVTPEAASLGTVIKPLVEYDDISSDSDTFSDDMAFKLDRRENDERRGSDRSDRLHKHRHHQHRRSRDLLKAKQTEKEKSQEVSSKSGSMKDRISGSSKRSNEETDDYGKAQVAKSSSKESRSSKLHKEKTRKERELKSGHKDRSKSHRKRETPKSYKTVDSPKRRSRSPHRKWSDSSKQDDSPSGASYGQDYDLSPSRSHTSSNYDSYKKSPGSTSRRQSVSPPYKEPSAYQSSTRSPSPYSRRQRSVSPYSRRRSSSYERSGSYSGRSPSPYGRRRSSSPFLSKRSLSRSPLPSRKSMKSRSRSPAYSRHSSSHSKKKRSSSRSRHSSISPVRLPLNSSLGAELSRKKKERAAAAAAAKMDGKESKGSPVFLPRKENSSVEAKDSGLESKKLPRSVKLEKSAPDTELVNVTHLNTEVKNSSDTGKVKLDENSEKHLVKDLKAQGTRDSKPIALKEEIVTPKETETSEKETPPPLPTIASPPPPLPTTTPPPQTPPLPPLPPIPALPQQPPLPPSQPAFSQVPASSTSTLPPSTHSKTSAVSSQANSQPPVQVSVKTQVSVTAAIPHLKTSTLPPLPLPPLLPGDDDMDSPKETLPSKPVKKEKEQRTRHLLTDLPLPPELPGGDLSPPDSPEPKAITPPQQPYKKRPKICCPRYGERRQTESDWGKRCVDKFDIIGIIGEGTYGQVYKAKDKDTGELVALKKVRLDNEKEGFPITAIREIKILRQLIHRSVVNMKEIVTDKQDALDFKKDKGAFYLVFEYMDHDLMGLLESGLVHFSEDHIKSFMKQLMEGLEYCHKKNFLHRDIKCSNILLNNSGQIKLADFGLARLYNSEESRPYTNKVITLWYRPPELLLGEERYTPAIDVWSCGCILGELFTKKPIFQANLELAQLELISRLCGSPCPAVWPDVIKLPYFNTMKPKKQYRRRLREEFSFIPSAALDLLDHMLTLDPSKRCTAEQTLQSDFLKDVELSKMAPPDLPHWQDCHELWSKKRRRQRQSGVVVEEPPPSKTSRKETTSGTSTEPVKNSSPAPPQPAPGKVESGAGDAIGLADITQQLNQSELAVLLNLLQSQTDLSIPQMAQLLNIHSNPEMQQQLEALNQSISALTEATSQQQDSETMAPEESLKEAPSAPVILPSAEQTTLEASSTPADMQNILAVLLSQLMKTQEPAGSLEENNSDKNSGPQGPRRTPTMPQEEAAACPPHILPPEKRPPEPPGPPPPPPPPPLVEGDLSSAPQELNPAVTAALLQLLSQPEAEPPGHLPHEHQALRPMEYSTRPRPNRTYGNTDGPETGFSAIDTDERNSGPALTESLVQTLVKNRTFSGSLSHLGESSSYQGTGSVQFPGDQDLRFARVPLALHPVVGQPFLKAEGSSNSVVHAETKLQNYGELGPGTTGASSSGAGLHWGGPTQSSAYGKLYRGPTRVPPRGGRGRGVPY

SMILES	pIC50 (CDK13)	pKd (CDK12)	pIC50 (CDK7)
C=CC(=O)NCc1ccc(-c2ccc(C(C)C(=O)Nc3cc(C4CC4)[nH]n3)cn2)cn1 (stereo not shown) [Compound 4, N-((5-(1-((5-cyclopropyl-1H-pyrazol-3-yl)amino)-1-oxopropan-2-yl)[2,3′-bipyridin]-6′-yl)methyl)acrylamide]	8.40		
C=CC(=O)NC(CC)c1ccc(-c2ccc([C@H](C)C(=O)Nc3cc(C4CC4)[nH]n3)cc2)cn1 (stereo partly drawn) [Compound 19, N-(1-(5-(4-((S)-1-((5-cyclopropyl-1H-pyrazol-3-yl)amino)-1-oxopropan-2-yl)phenyl)pyridin-2-yl)propyl)acrylamide]	7.89	> 7.30	
CC(C(=O)Nc1cc(C2CC2)[nH]n1)c1ccc(-c2ccc(NC(=O)/C=C/CN3CCOCC3)nc2)cc1 (single isomer, unassigned) [Compound 6, (E)-N-(5-(4-(1-((5-cyclopropyl-1H-pyrazol-3-yl)amino)-1-oxopropan-2-yl)phenyl)pyridin-2-yl)-4-morpholinobut-2-enamide]	6.30	6.30 to 7.30	< 5.00
C=CC(=O)NCc1ccc(C(C)C(=O)Nc2cc(C3CC3)[nH]n2)cc1 (single isomer, unassigned) [Compound 24, N-(4-(1-((5-cyclopropyl-1H-pyrazol-3-yl)amino)-1-oxopropan-2-yl)benzyl)acrylamide]	6.63	6.30 to 7.30	
CC(C(=O)Nc1cc(C2CC2)[nH]n1)c1ccc(-c2ccc(CNC(=O)/C=C/CN3CCOCC3)cc2)cc1 (single isomer, unassigned) [Compound 17, (E)-N-((4′-(1-((5-cyclopropyl-1H-pyrazol-3-yl)amino)-1-oxopropan-2-yl)-[1,1′-biphenyl]-4-yl)methyl)-4-morpholinobut-2-enamide]	7.27	> 7.30	5.81
C=CC(=O)NCc1ccc(C(C)C(=O)Nc2cc(C3CC3)[nH]n2)cc1 (single isomer, unassigned) [Compound 25, N-(4-(1-((5-cyclopropyl-1H-pyrazol-3-yl)amino)-1-oxopropan-2-yl)benzyl)acrylamide]		< 6.30	
C=CC(=O)NCc1ccc(C(C)C(=O)Nc2cc(C3CC3)[nH]n2)cn1 (stereo not shown) [Compound 26, N-((5-(1-((5-cyclopropyl-1H-pyrazol-3-yl)amino)-1-oxopropan-2-yl)pyridin-2-yl)methyl)acrylamide]	6.48	6.30 to 7.30	
CC(C(=O)Nc1cc(C2CC2)[nH]n1)c1ccc(-c2ccc(CNC(=O)/C=C/CN3CCOCC3)cc2)cc1 (stereo not shown) [Compound 15, (E)-N-((4′-(1-((5-cyclopropyl-1H-pyrazol-3-yl)amino)-1-oxopropan-2-yl)-[1,1′-biphenyl]-4-yl)methyl)-4-morpholinobut-2-enamide]	6.59	> 7.30	5.44
C=CC(=O)NCc1ccc(-c2ccc(C(C)C(=O)Nc3cc(C4CC4)[nH]n3)cc2)cc1 (single isomer, unassigned) [Compound 11, N-((4′-(1-((5-cyclopropyl-1H-pyrazol-3-yl)amino)-1-oxopropan-2-yl)-[1,1′-biphenyl]-4-yl)methyl)acrylamide]	7.02		5.67
C=CC(=O)Nc1ccc(-c2ccc(C(C)C(=O)Nc3cc(C4CC4)[nH]n3)cc2)cc1 (single isomer, unassigned) [Compound 3, N-(4′-(1-((5-cyclopropyl-1H-pyrazol-3-yl)amino)-1-oxopropan-2-yl)-[1,1′-biphenyl]-4-yl)acrylamide]	7.74		5.72
C=CC(=O)NCc1ccc(-c2ccc(C(C)C(=O)Nc3cc(C4CC4)[nH]n3)cc2)cc1 (racemic) [Compound 9, N-((4′-(1-((5-cyclopropyl-1H-pyrazol-3-yl)amino)-1-oxopropan-2-yl)-[1,1′-biphenyl]-4-yl)methyl)acrylamide]	7.77	< 6.30	5.26
CC(C(=O)Nc1cc(C2CC2)[nH]n1)c1ccc(-c2ccc(NC(=O)/C=C/CN3CCOCC3)cc2)cc1 (stereo not shown) [Compound 12, (E)-N-(4′-(1-((5-cyclopropyl-1H-pyrazol-3-yl)amino)-1-oxopropan-2-yl)-[1,1′-biphenyl]-4-yl)-4-morpholinobut-2-enamide]	7.22	> 7.30	
C=CC(=O)NCc1ccc(-c2ccc(C(C)C(=O)Nc3cc(C4CC4)[nH]n3)cc2)nc1 (stereo not shown) [Compound 22, N-((6-(4-(1-((5-cyclopropyl-1H-pyrazol-3-yl)amino)-1-oxopropan-2-yl)phenyl)pyridin-3-yl)methyl)acrylamide]	7.68	> 7.30	5.28
CC(C(=O)Nc1cc(C2CC2)[nH]n1)c1ccc(-c2ccc(CNC(=O)/C=C/CN3CCOCC3)nc2)cc1 (single isomer, unassigned) [Compound 14, (E)-N-((5-(4-(1-((5-cyclopropyl-1H-pyrazol-3-yl)amino)-1-oxopropan-2-yl)phenyl)pyridin-2-yl)methyl)-4-morpholinobut-2-enamide]	8.41	> 7.30	5.95
CC(C(=O)Nc1cc(C2CC2)[nH]n1)c1ccc(-c2ccc(NC(=O)/C=C/CN3CCOCC3)nc2)cc1 (stereo not shown) [Compound 5, (E)-N-(5-(4-(1-((5-cyclopropyl-1H-pyrazol-3-yl)amino)-1-oxopropan-2-yl)phenyl)pyridin-2-yl)-4-morpholinobut-2-enamide]	7.62		5.77
CC(C(=O)Nc1cc(C2CC2)[nH]n1)c1ccc(-c2ccc(CNC(=O)/C=C/CN3CCOCC3)cc2)cc1 (single isomer, unassigned) [Compound 16, (E)-N-((4′-(1-((5-cyclopropyl-1H-pyrazol-3-yl)amino)-1-oxopropan-2-yl)-[1,1′-biphenyl]-4-yl)methyl)-4-morpholinobut-2-enamide]	6.67	< 6.30	< 5.00
C=CC(=O)NC1(c2ccc(-c3ccc([C@H](C)C(=O)Nc4cc(C5CC5)[nH]n4)cc3)cn2)CC1 [Compound 18, (S)-N-(1-(5-(4-(1-((5-cyclopropyl-1H-pyrazol-3-yl)amino)-1-oxopropan-2-yl)phenyl)pyridin-2-yl)cyclopropyl)acrylamide]	6.92	> 7.30	5.26
C=CC(=O)Nc1ccc(-c2ccc(C(C)C(=O)Nc3cc(C4CC4)[nH]n3)cc2)cc1 (racemic) [Compound 1, N-(4′-(1-((5-cyclopropyl-1H-pyrazol-3-yl)amino)-1-oxopropan-2-yl)-[1,1′-biphenyl]-4-yl)acrylamide]	7.62	6.30 to 7.30	4.94
CC(C(=O)Nc1cc(C2CC2)[nH]n1)c1ccc(-c2ccc(CNC(=O)/C=C/CN3CCOCC3)nc2)cc1 (single isomer, unassigned) [Compound 13, (E)-N-((5-(4-(1-((5-cyclopropyl-1H-pyrazol-3-yl)amino)-1-oxopropan-2-yl)phenyl)pyridin-2-yl)methyl)-4-morpholinobut-2-enamide]	5.69	< 6.30	< 5.00
C=CC(=O)NC(C)c1ccc(-c2ccc([C@H](C)C(=O)Nc3cc(C4CC4)[nH]n3)cc2)cn1 (stereo partly drawn) [Compound 20, N-(1-(5-(4-((S)-1-((5-cyclopropyl-1H-pyrazol-3-yl)amino)-1-oxopropan-2-yl)phenyl)pyridin-2-yl)ethyl)acrylamide]	7.44	> 7.30	5.54
C=CC(=O)NCc1ccc(C(C)C(=O)Nc2cc(C3CC3)[nH]n2)cc1 (racemic) [Compound 23, N-(4-(1-((5-cyclopropyl-1H-pyrazol-3-yl)amino)-1-oxopropan-2-yl)benzyl)acrylamide]	6.55	6.30 to 7.30	< 5.00
